Measurements as given in the supplement of paper PMC10307832.

Legend:
Experiment in all cases: relative viability (nuclei count vs DMSO), 5 days (fraction); higher = more cells survive
[1] = compound: CC1=C(C(=O)N2C=CSC2=N1)CCN3CCC(=C(C4=CC=CC=C4)C5=CC=C(C=C5)F)CC3 + CS(=O)(=O)N1CCN(Cc2cc3nc(-c4cccc5[nH]ncc45)nc(N4CCOCC4)c3s2)CC1 [Pictilisib] (partner 1 µM)
Method in brief: (§1)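 After 5 days of treatment, lung cancer cells in 1536-well plates were fixed and stained in a single step (final 0.05% Triton X-100, 1% formaldehyde, 1 ug/ml Hoechst) and their nuclei counted on 4× images. Treatment had been applied by pin tool the day after seeding as one drug alone or as a fixed anchor-drug dose with five library-drug doses (not always all listed) in √10 steps. Relative viability is the nuclei count of treated wells divided by that of vehicle wells, and values are medians of duplicate plates.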

[2] = compound: CC1=C(C(=O)N2C=CSC2=N1)CCN3CCC(=C(C4=CC=CC=C4)C5=CC=C(C=C5)F)CC3 + CC(=O)c1c(C)c2cnc(Nc3ccc(N4CCNCC4)cn3)nc2n(C2CCCC2)c1=O [Palbociclib] (partner 0.5 µM)
Method in brief: as §1

[3] = compound: CC1=C(C(=O)N2C=CSC2=N1)CCN3CCC(=C(C4=CC=CC=C4)C5=CC=C(C=C5)F)CC3 + N=C(N)NC(=N)NCCc1ccccc1 [Phenformin] (partner 250 µM)
Method in brief: as §1

[4] = compound: CC1=C(C(=O)N2C=CSC2=N1)CCN3CCC(=C(C4=CC=CC=C4)C5=CC=C(C=C5)F)CC3 + Nc1ncn([C@H]2C[C@H](O)[C@@H](CO)O2)c(=O)n1 [Decitabine] (partner 2 µM)
Method in brief: as §1

| Cell Line | relative viability ([1]; first compound 0.08 µM) | relative viability ([1]; first compound 0.253 µM) | relative viability ([1]; first compound 0.8 µM) | relative viability ([1]; first compound 2.53 µM) | relative viability ([1]; first compound 8 µM) | relative viability ([2]; first compound 0.08 µM) | relative viability ([2]; first compound 0.253 µM) | relative viability ([2]; first compound 0.8 µM) | relative viability ([2]; first compound 2.53 µM) | relative viability ([2]; first compound 8 µM) | relative viability ([3]; first compound 0.08 µM) | relative viability ([3]; first compound 0.253 µM) | relative viability ([3]; first compound 0.8 µM) | relative viability ([3]; first compound 2.53 µM) | relative viability ([3]; first compound 8 µM) | relative viability ([4]; first compound 0.08 µM) | relative viability ([4]; first compound 0.253 µM) | relative viability ([4]; first compound 0.8 µM) | relative viability ([4]; first compound 2.53 µM) | relative viability ([4]; first compound 8 µM) |
| --- | --- | --- | --- | --- | --- | --- | --- | --- | --- | --- | --- | --- | --- | --- | --- | --- | --- | --- | --- | --- |
| PC-14 | 0.604 | 0.617 | 0.708 | 0.93 | 0.399 | 0.358 | 0.574 | 0.455 | 0.622 | 0.328 | 0.624 | 0.558 | 0.518 | 0.661 | 0.296 | 0.205 | 0.241 | 0.201 | 0.237 | 0.176 |
| 201T | 0.647 | 0.779 | 0.632 | 0.712 | 0.808 | 0.355 | 0.35 | 0.366 | 0.35 | 0.348 | 0.504 | 0.463 | 0.433 | 0.477 | 0.386 | 0.884 | 0.89 | 0.845 | 0.9 | 0.804 |
| NCI-H1944 | 0.369 | 0.336 | 0.343 | 0.333 | 0.37 | 0.305 | 0.31 | 0.341 | 0.29 | 0.259 | 0.195 | 0.207 | 0.229 | 0.188 | 0.182 | 0.462 | 0.43 | 0.413 | 0.433 | 0.417 |
| NCI-H647 | 0.552 | 0.385 | 0.381 | 0.498 | 0.312 | 0.461 | 0.425 | 0.298 | 0.453 | 0.153 | 0.573 | 0.644 | 0.54 | 0.438 | 0.348 | 0.389 | 0.412 | 0.378 | 0.505 | 0.297 |
| NCI-H1975 | 0.337 | 0.296 | 0.271 | 0.291 | 0.273 | 0.601 | 0.493 | 0.598 | 0.795 | 0.348 | 0.393 | 0.425 | 0.397 | 0.441 | 0.381 | 0.347 | 0.507 | 0.36 | 0.408 | 0.353 |
| NCI-H2009 | 1.05 | 0.843 | 0.736 | 0.956 | 0.723 | 0.231 | 0.175 | 0.186 | 0.204 | 0.21 | 0.541 | 0.492 | 0.493 | 0.49 | 0.362 | 0.396 | 0.393 | 0.396 | 0.396 | 0.369 |
| NCI-H3122 | 0.72 | 0.678 | 0.574 | 0.768 | 0.623 | 0.178 | 0.213 | 0.192 | 0.164 | 0.157 | 0.38 | 0.376 | 0.386 | 0.396 | 0.394 | 0.398 | 0.434 | 0.402 | 0.467 | 0.439 |
| NCI-H460 | 0.326 | 0.329 | 0.329 | 0.366 | 0.209 | 0.187 | 0.151 | 0.203 | 0.0978 | 0.13 | 0.474 | 0.562 | 0.611 | 0.548 | 0.113 | 0.581 | 0.445 | 0.555 | 0.572 | 0.157 |
| SW 1573 |  | 0.478 | 0.478 | 0.486 | 0.264 | 0.346 | 0.359 | 0.407 | 0.382 | 0.286 |  | 0.343 | 0.4 | 0.377 | 0.24 | 0.453 | 0.524 | 0.505 | 0.633 | 0.447 |
| PC-3 [JPC-3] | 0.78 | 0.746 | 0.72 | 0.765 | 0.711 | 0.58 |  | 0.576 | 0.596 | 0.579 | 0.49 | 0.451 | 0.454 | 0.525 | 0.495 | 0.826 |  | 0.932 | 0.845 | 0.846 |
| EKVX | 0.38 | 0.412 | 0.479 | 0.408 | 0.36 | 0.371 | 0.366 | 0.349 | 0.397 | 0.293 | 0.211 | 0.26 | 0.236 | 0.207 | 0.221 | 0.345 | 0.335 | 0.376 | 0.366 | 0.386 |
| UMC-11 | 0.953 | 0.811 | 0.8 | 1.15 | 0.733 | 0.309 | 0.321 | 0.272 | 0.321 | 0.328 | 0.366 | 0.326 | 0.321 | 0.338 | 0.255 | 0.591 | 0.714 | 0.58 | 0.633 | 0.53 |
| NCI-H1651 | 0.621 | 0.676 | 0.51 | 0.684 | 0.495 | 0.499 | 0.534 | 0.508 | 0.517 | 0.481 | 0.341 | 0.321 | 0.352 | 0.304 | 0.283 | 0.644 | 0.604 | 0.587 | 0.597 | 0.526 |
| ChaGo-K-1 | 0.976 | 0.593 | 0.476 | 0.937 | 0.604 | 0.919 | 0.92 | 0.989 | 1.05 | 0.649 | 0.561 | 0.462 | 0.53 | 0.539 | 0.431 | 0.495 | 0.548 | 0.52 | 0.629 | 0.46 |
| LK-2 | 0.611 | 0.66 | 0.605 | 0.451 | 0.539 | 0.766 | 0.607 | 0.822 | 0.791 | 0.575 | 0.417 | 0.386 | 0.301 | 0.297 | 0.321 | 0.316 | 0.226 | 0.341 | 0.339 | 0.248 |
| NCI-H2126 | 0.493 | 0.509 | 0.477 | 0.516 | 0.579 | 0.367 | 0.343 | 0.359 | 0.367 | 0.344 | 0.518 | 0.541 | 0.525 | 0.555 | 0.517 | 0.588 | 0.518 | 0.599 | 0.614 | 0.514 |
